Experimental data taken from ChEMBL document CHEMBL3414448, “Advances in the discovery of novel antimicrobials targeting the assembly of bacterial cell division protein FtsZ” (Eur J Med Chem, 2015).
In brackets after ≈: the same amount, converted by molar mass.

How the values were obtained:
[1] = test system: Escherichia coli; assay: Antimicrobial activity against Escherichia coli; format: functional
[2] = test system: Staphylococcus aureus; assay: Antimicrobial activity against Staphylococcus aureus; format: functional
[3] = Inhibition of FtsZ (unknown origin) assessed as reduction in enzyme GTPase activity
[4] = test system: Bacillus subtilis; assay: Antimicrobial activity against Bacillus subtilis; format: functional
[5] = target: T1, Cell division protein FtsZ (Bacillus subtilis (strain 168), UniProt P17865); assay: Binding affinity to Bacillus subtilis FtsZ
T1 sequence (P17865 whole entry): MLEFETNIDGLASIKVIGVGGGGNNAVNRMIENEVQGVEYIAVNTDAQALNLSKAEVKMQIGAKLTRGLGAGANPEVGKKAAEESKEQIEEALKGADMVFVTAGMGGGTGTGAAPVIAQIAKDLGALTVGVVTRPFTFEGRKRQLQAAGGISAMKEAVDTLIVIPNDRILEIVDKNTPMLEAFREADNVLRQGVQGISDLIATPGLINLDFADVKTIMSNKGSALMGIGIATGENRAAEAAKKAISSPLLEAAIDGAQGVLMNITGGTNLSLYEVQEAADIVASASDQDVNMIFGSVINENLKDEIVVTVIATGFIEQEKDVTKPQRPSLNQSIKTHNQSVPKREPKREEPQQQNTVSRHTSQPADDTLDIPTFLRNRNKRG

[6] = test system: HeLa; assay: Cytotoxicity against human HeLa cells; format: cell-based
[7] = target: T2, Cell division protein FtsZ (Escherichia coli K-12, UniProt P0A9A6); assay: Inhibition of Escherichia coli FtsZ
T2 sequence (P0A9A6 whole entry): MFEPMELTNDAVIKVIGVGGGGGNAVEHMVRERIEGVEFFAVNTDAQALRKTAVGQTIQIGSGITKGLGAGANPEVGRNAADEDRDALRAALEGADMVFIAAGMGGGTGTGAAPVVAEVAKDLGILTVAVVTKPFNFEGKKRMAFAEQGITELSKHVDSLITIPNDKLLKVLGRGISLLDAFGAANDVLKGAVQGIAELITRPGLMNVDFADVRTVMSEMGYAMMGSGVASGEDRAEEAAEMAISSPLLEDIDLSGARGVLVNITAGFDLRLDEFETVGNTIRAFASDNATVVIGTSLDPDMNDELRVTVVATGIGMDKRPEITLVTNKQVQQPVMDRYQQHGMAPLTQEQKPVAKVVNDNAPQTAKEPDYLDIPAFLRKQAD

[8] = target: T2, Cell division protein FtsZ; assay: Inhibition of Escherichia coli FtsZ GTPase activity
[9] = test system: Bacillus subtilis; assay: Antimicrobial activity against Bacillus subtilis 168; format: functional
[10] = test system: Staphylococcus aureus; assay: Antimicrobial activity against methicillin-sensitive Staphylococcus aureus ATCC 29213; format: functional
[11] = test system: Enterococcus faecium; assay: Antimicrobial activity against ampicillin-resistant and levofloxacin-resistant Enterococcus faecium 12160560; format: functional
[12] = test system: Enterococcus faecalis; assay: Antimicrobial activity against Enterococcus faecalis ATCC 29212; format: functional
[13] = test system: Streptococcus pneumoniae; assay: Antimicrobial activity against Streptococcus pneumoniae ATCC 49619; format: functional
[14] = test system: Acinetobacter baumannii; assay: Antimicrobial activity against multidrug-resistant Acinetobacter baumannii 12159796; format: functional
[15] = test system: Pseudomonas aeruginosa; assay: Antimicrobial activity against Pseudomonas aeruginosa ATCC 27853; format: functional
[16] = test system: Enterobacter cloacae; assay: Antimicrobial activity against multidrug-resistant Enterobacter cloacae 12161389; format: functional
[17] = test system: Escherichia coli; assay: Antimicrobial activity against Escherichia coli ATCC 35218; format: functional
[18] = test system: Klebsiella pneumoniae; assay: Antimicrobial activity against ESBL producing Klebsiella pneumoniae ATCC 700603; format: functional
[19] = Inhibition of FtsZ (unknown origin) assessed as reduction in enzyme assembly
[20] = test system: Pseudomonas fluorescens; assay: Antimicrobial activity against Pseudomonas fluorescens; format: functional
[21] = Selectivity index, ratio of IC50 for human HeLa cells to MIC for Staphylococcus aureus MR12160636
[22] = target: T2, Cell division protein FtsZ; assay: Inhibition of Escherichia coli FtsZ polymerization
[23] = test system: Bacillus subtilis; assay: Antimicrobial activity against Bacillus subtilis relative to control; format: functional
[24] = test system: Escherichia coli; assay: Antimicrobial activity against Escherichia coli relative to control; format: functional
[25] = test system: Staphylococcus aureus; assay: Antimicrobial activity against methicillin-resistant Staphylococcus aureus; format: functional
[26] = test system: Staphylococcus aureus; assay: Antimicrobial activity against multidrug-resistant Staphylococcus aureus; format: functional
[27] = test system: Enterococcus; assay: Antimicrobial activity against […]-resistant Enterococcus; format: functional

Q: What does the source list for `CCC(CC)c1cc([C@H]2CN3CC[C@H]2C[C@@H]3CN)nc(-c2ccncc2)n1`?
A: MIC [1]: 18 µg/mL (≈ 49.2 µM); MIC [2]: 9 µg/mL (≈ 24.6 µM); IC50 [3]: 37.5 µM

Q: Which GI50 [4] does the source give for `O=C1NC(=S)S/C1=C/c1ccc(-c2cccc(C(F)(F)F)c2)o1` here?
A: 2 µM

Q: What about the Kd [5] of the same molecule?
A: 1.5 µM

Q: And the IC50 [6]?
A: 18.1 µM

Q: With `CN(C)CCNc1nc(/C=C/c2ccc(Cl)cc2)nc2cc3ccccc3cc12` as the molecule, how does the IC50 [7] read?
A: 12 µM

Q: With `O=C1C[C@@H](c2ccccc2)Oc2c(Cc3ccccc3O)c(O)c(Cc3ccccc3O)c(O)c21` [DICHAMANETIN] as the molecule, how does the IC50 [8] read?
A: 12.5 µM

Q: What about the MIC [4] of the same molecule?
A: 5.01 µg/mL (≈ 10.7 µM)

Q: What about the MIC [2] of the same molecule?
A: 0.8 µg/mL (≈ 1.71 µM)

Q: Which MIC [9] does the source give for `O=C(Oc1cc(OC(=O)c2cc(O)c(O)c(O)c2)c2ccccc2c1)c1cc(O)c(O)c(O)c1` here?
A: 64 µg/mL (≈ 138 µM)

Q: And the MIC [10]?
A: 32 µg/mL (≈ 68.9 µM)

Q: And the MIC [11]?
A: 64 µg/mL (≈ 138 µM)

Q: And the MIC [12]?
A: 64 µg/mL (≈ 138 µM)

Q: And the MIC [13]?
A: 64 µg/mL (≈ 138 µM)

Q: What about the MIC [14] of the same molecule?
A: 64 µg/mL (≈ 138 µM)

Q: What about the MIC [15] of the same molecule?
A: 128 µg/mL (≈ 276 µM)

Q: And the MIC [16]?
A: 128 µg/mL (≈ 276 µM)

Q: And the MIC [17]?
A: 128 µg/mL (≈ 276 µM)

Q: And the MIC [18]?
A: 128 µg/mL (≈ 276 µM)

Q: With `COc1ccc2cc3[n+](cc2c1OC)CCc1cc2c(cc1-3)OCO2` [BERBERINE] as the molecule, how does the IC50 [19] read?
A: 10 µM

Q: And the IC50 [3]?
A: 16 µM

Q: With `Cc1nc(-c2cccs2)cc([C@H]2CN3CC[C@H]2C[C@@H]3CNC(=O)CCCC(=O)O)n1` as the molecule, how does the MIC [1] read?
A: 192 µg/mL (≈ 449 µM)

Q: What about the MIC [2] of the same molecule?
A: 384 µg/mL (≈ 897 µM)

Q: And the IC50 [3]?
A: 317 µM

Q: For `COc1ccc(/N=C/c2ccc(OC(C)=O)c(OC)c2[N+](=O)[O-])cc1`, which MIC [4] is on record?
A: 1.56 µg/mL (≈ 4.53 µM)

Q: And the MIC [1]?
A: 1.56 µg/mL (≈ 4.53 µM)

Q: What about the MIC [2] of the same molecule?
A: 1.56 µg/mL (≈ 4.53 µM)

Q: What about the MIC [20] of the same molecule?
A: 1.56 µg/mL (≈ 4.53 µM)

Q: Which Ratio [21] does the source give for `O=C(Oc1cc(OC(=O)c2ccc(O)c(Cl)c2)c2ccccc2c1)c1ccc(O)c(Cl)c1` here?
A: 5

Q: And the MIC [9]?
A: 4 µg/mL (≈ 8.52 µM)

Q: And the MIC [10]?
A: 8 µg/mL (≈ 17 µM)

Q: What about the MIC [11] of the same molecule?
A: 4 µg/mL (≈ 8.52 µM)

Q: What about the MIC [12] of the same molecule?
A: 2 µg/mL (≈ 4.26 µM)

Q: And the MIC [13]?
A: 32 µg/mL (≈ 68.2 µM)

Q: What about the MIC [14] of the same molecule?
A: 32 µg/mL (≈ 68.2 µM)

Q: What about the MIC [15] of the same molecule?
A: 64 µg/mL (≈ 136 µM)

Q: And the MIC [16]?
A: 128 µg/mL (≈ 273 µM)

Q: What about the MIC [17] of the same molecule?
A: 128 µg/mL (≈ 273 µM)

Q: What about the MIC [18] of the same molecule?
A: 128 µg/mL (≈ 273 µM)

Q: What does the source list for `O=C(Oc1cc(OC(=O)c2cc(O)cc(O)c2)c2ccccc2c1)c1cc(O)c(O)c(O)c1`?
A: MIC [9]: 16 µg/mL (≈ 35.7 µM); MIC [10]: 16 µg/mL (≈ 35.7 µM); MIC [11]: 32 µg/mL (≈ 71.4 µM); MIC [12]: 32 µg/mL (≈ 71.4 µM); MIC [13]: 32 µg/mL (≈ 71.4 µM); MIC [14]: 64 µg/mL (≈ 143 µM); MIC [15]: 64 µg/mL (≈ 143 µM); MIC [16]: 128 µg/mL (≈ 285 µM); MIC [17]: 128 µg/mL (≈ 285 µM); MIC [18]: 128 µg/mL (≈ 285 µM)

Q: With `O=C/C=C/c1ccccc1` [CINNAMALDEHYDE] as the molecule, how does the IC50 [8] read?
A: 5.81 µM

Q: And the IC50 [22]?
A: 6.86 µM

Q: And the MIC [23]?
A: 500 µg/mL (≈ 3780 µM)

Q: What about the MIC [24] of the same molecule?
A: 1000 µg/mL (≈ 7570 µM)

Q: And the MIC [25]?
A: 0.25 µg/mL (≈ 1.89 µM)

Q: What about the MIC [4] of the same molecule?
A: 0.5 µg/mL (≈ 3.78 µM)

Q: And the MIC [1]?
A: 1 µg/mL (≈ 7.57 µM)

Q: With `Oc1cc(O)c2c(c1)C/C(Cl)=C\Cc1cc(c(Cl)cc1O)Oc1c(O)cc(cc1O)C/C(Cl)=C\Cc1cc(c(Cl)cc1O)O2` as the molecule, how does the MIC [25] read?
A: 1.5 µg/mL (≈ 2.21 µM)

Q: What about the MIC [26] of the same molecule?
A: 1.3 µg/mL (≈ 1.92 µM)

Q: And the MIC [27]?
A: 2.9 µg/mL (≈ 4.28 µM)
